10 compounds from ChEMBL document CHEMBL1136616, “Carbonic anhydrase inhibitors: SAR and X-ray crystallographic study for the interaction of sugar sulfamates/sulfamides with isozymes I, II and IV” (Bioorg Med Chem Lett, 2003) can be followed below.

The target of one assay is Carbonic anhydrase 2 (Homo sapiens, UniProt P00918).
In a further assay the target is T1, Carbonic anhydrase 4 (Bos taurus, UniProt Q95323).
T1 sequence (Q95323 whole entry): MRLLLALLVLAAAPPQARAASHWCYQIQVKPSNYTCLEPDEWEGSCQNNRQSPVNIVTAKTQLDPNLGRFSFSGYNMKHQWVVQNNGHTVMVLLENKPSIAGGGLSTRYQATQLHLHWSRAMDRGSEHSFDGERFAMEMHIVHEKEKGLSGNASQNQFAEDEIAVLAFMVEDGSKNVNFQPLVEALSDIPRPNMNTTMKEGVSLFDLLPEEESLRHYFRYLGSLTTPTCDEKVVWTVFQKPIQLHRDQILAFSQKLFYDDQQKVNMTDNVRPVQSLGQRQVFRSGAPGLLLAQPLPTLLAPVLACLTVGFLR

The target in another assay is Carbonic anhydrase 1 (Homo sapiens, UniProt P00915).
Chain of Carbonic anhydrase 1 (P00915 whole entry): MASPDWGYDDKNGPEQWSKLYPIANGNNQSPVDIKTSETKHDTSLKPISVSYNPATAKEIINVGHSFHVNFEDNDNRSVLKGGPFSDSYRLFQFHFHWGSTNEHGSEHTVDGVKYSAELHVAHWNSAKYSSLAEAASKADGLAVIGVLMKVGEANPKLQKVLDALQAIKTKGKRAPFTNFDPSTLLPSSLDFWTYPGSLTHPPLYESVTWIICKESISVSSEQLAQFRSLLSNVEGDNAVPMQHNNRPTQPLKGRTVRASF

Structures are written as SMILES.

Description for Carbonic anhydrase 1: Inhibitory activity against human cloned carbonic anhydrase I (hCA I)
Description for Carbonic anhydrase 2: Inhibitory activity against human cloned carbonic anhydrase II (hCA II)
Description for Carbonic anhydrase 4: Inhibitory activity against carbonic anhydrase isolated from bovine lung microsome (bCA IV)

`CC1(C)O[C@@H]2[C@@H](CO[C@@]3(C(=O)NS(N)(=O)=O)OC(C)(C)O[C@@H]23)O1`: the Ki at Carbonic anhydrase 2, at Carbonic anhydrase 4 and on Carbonic anhydrase 1 was greater than 100 µM each time.
`CC1(C)OC[C@@H]2O[C@@]3(C(=O)NNS(N)(=O)=O)OC(C)(C)O[C@H]3[C@@H]2O1`: the figures for the Ki on Carbonic anhydrase 2, at Carbonic anhydrase 4 and on Carbonic anhydrase 1 were 21 µM, 33 µM and 420 µM, respectively.
For `CC1(C)O[C@@H]2O[C@@H](C(=O)NS(N)(=O)=O)[C@H]3OC(C)(C)O[C@H]3[C@@H]2O1`, in that order: 25 µM, 46 µM and greater than 100 µM.
For `CC1(C)O[C@H]2[C@@H](O1)[C@@H](C(=O)NNS(N)(=O)=O)O[C@@H]1OC(C)(C)O[C@@H]12`, in that order: 15 µM, 30 µM and greater than 100 µM.
In the case of `CC1(C)OC[C@@H]2O[C@@]3(C(=O)NS(N)(=O)=O)OC(C)(C)O[C@H]3[C@@H]2O1`, the results for the Ki at Carbonic anhydrase 2, at Carbonic anhydrase 4 and at Carbonic anhydrase 1 were 0.068 µM, 0.425 µM and 0.75 µM, respectively.
Take `CC1(C)O[C@@H]2[C@@H](CO[C@@]3(C(=O)NNS(N)(=O)=O)OC(C)(C)O[C@@H]23)O1`: the inhibition constant (Ki) on Carbonic anhydrase 2, at Carbonic anhydrase 4 and at Carbonic anhydrase 1 was greater than 100 µM in each case.
`CC1(C)OC[C@@H]2O[C@@]3(COC(=O)NS(N)(=O)=O)OC(C)(C)O[C@H]3[C@@H]2O1`: the Ki is 0.071 µM on Carbonic anhydrase 2, 0.13 µM on Carbonic anhydrase 4 and 1.2 µM at Carbonic anhydrase 1.
For `CC1(C)O[C@@H]2O[C@@H](COS(N)(=O)=O)[C@H]3OC(C)(C)O[C@H]3[C@@H]2O1`, in that order: 13 µM, 27 µM and 400 µM.
In the same order, the values of `CC1(C)O[C@@H]2[C@@H](CO[C@@]3(COC(=O)NS(N)(=O)=O)OC(C)(C)O[C@@H]23)O1` are 0.024 µM, 0.045 µM and 0.42 µM.
`NS(=O)(=O)O` [SULFAMATE]: on Carbonic anhydrase 1, the Ki was determined as 21 µM.
